The numbers were not newly measured in patent US9138417B2, “Controlled release particles and production method thereof” (priority 2011, dated 2015), which cites them from elsewhere.

Molecules are shown by their SMILES.

As for `CCCCNC(=O)OCC#CI` [IPBC, 3-iodo-2-propynylbutylcarbamate], the water solubility is recorded as 150 ppm.
As for `C=C(C)C(=O)O` [Methacrylic acid], the water solubility is reported as 8.9 mass%.
For the compound `CCCC1COC(Cn2cncn2)(c2ccc(Cl)cc2Cl)O1` (stereo not drawn) [Propiconazole, 1-[2-(2,4-dichlorophenyl)-4-n-propyl-1,3-dioxolane-2-ylmethyl]-1H-1,2,4-triazole], the water solubility is reported as 110 ppm.
